Molecules are shown by their SMILES.

For 33 compounds, IC50 results are on record in patent publication US11104690B2, “Indazole derivatives useful as inhibitors of diacylglyceride O-acyltransferase 2” (Merck Sharp & Dohme Corp., priority 2016, dated 2021).

This test deals with Human DGAT2 (Homo sapiens (Human), UniProt Q96PD7). Briefly: DGAT2 Enzymatic Activity Assay (triolein formation, LC/MS/MS). Format: biochemical. Particulars: hDGAT2 Sf-9 membrane prep; 25 μM diolein, 10 μM oleoyl-CoA; room temperature. The method, boiled down: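 Triolein product, measured by LC/MS/MS as a ratio to internal standard, gave % inhibition and 4-parameter IC50. Reaction: 25 μM diolein, 10 μM oleoyl-CoA, 10 ng/μL hDGAT2 Sf-9 membrane, 100 mM Tris.Cl pH 7.0, 20 mM MgCl2, 5% ethanol, room temperature.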
Chain of Human DGAT2 (Q96PD7 whole entry): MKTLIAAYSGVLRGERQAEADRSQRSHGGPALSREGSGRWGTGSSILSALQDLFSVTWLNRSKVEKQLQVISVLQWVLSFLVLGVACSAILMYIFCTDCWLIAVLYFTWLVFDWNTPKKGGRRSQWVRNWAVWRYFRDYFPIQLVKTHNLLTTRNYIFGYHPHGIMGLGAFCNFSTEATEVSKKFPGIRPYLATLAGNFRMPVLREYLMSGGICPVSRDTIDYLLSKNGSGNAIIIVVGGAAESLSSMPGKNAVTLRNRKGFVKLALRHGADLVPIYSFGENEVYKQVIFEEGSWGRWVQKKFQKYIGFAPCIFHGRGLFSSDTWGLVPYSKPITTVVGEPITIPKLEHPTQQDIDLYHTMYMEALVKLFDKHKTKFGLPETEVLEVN

In the case of `Cc1noc([C@H](NC(=O)c2ccc3c(-c4ccccc4Cl)nn(-c4ccc(F)cc4)c3c2)[C@H](C)O)n1` (stereo in doubt) [Example 48, 3-(2-chlorophenyl)-1-(4-fluorophenyl)-N-[(1R,2S)-2-hydroxy-1-(3-methyl-1,2,4-oxadiazol-5-yl)propyl]-1H-indazole-6-carboxamide], 96 nM corresponded to half-maximal inhibition (IC50).

For the compound `N#Cc1cccc(-c2nn(-c3ccc(F)cn3)c3cc(C(=O)N[C@H]4CCS(=O)(=O)C4)ccc23)c1` [177-B], the IC50 – broadly, the concentration that gives 50% inhibition – was determined as 86 nM.

`C[C@@H](NC(=O)c1ccc2c(-c3ccccc3Cl)nn(-c3ccc(F)cc3)c2c1)c1ccc(C(F)(F)F)[n+]([O-])c1` [Example 3, 3-(2-chlorophenyl)-1-(4-fluorophenyl)-N-{(1R)-1-[1-oxido-6-(trifluoromethyl)pyridin-3-yl]ethyl}-1H-indazole-6-carboxamide] yielded a 50% inhibitory concentration (IC50) of 155 nM.

With `C[C@@H](NC(=O)c1ccc2c(-c3ccccc3Cl)nn(-c3ccc(F)cc3)c2c1)c1cnc(C(F)(F)F)nc1` [Example 4, 3-(2-chlorophenyl)-1-(4-fluorophenyl)-N-{(1R)-1-[2-(trifluoromethyl)pyrimidin-5-yl]ethyl}-1H-indazole-6-carboxamide], the IC50 is 67 nM.

The compound `O=C(N[C@H](CO)c1ccc(C(F)(F)F)nc1)c1ccc2c(-c3ccccc3Cl)nn(-c3ccc(F)cc3)c2c1` [Example 5, 3-(2-chlorophenyl)-1-(4-fluorophenyl)-N-{(1S)-2-hydroxy-1-[6-(trifluoromethyl)pyridin-3-yl]ethyl}-1H-indazole-6-carboxamide] had an IC50 of 45 nM.

Take `N[C@H]1CS(=O)(=O)C[C@@H]1NC(=O)c1ccc2c(-c3ccccc3Cl)nn(-c3ccc(F)cc3)c2c1` [Example 8, N-[(3R,4R)-4-amino-1,1-dioxidotetrahydrothiophen-3-yl]-3-(2-chlorophenyl)-1-(4-fluorophenyl)-1H-indazole-6-carboxamide]: the IC50 is 554 nM.

`O=C(N[C@@H]1CS(=O)(=O)C[C@H]1O)c1ccc2c(-c3ccccc3Cl)nn(-c3ccc(F)cc3)c2c1` [Example 9, 3-(2-chlorophenyl)-1-(4-fluorophenyl)-N-[(3S,4S)-4-hydroxy-1,1-dioxidotetrahydrothiophen-3-yl]-1H-indazole-6-carboxamide] came in with an IC50 of 531 nM. This IC50 and that of the compound before are within 1.5-fold of each other.

`O=C(Nc1ccc(C(F)(F)F)nc1)c1ccc2c(-c3ccccc3Cl)nn(-c3ccc(F)cc3)c2c1` [Example 10, 3-(2-chlorophenyl)-1-(4-fluorophenyl)-N-[6-(trifluoromethyl)pyridin-3-yl]-1H-indazole-6-carboxamide] yielded an IC50 of 608 nM.

`C[C@@H](NC(=O)c1ccc2c(-c3ccccc3Cl)nn(-c3ccc(F)cc3)c2c1)c1ccc(C(F)(F)F)nc1` [Example 11, 3-(2-chlorophenyl)-1-(4-fluorophenyl)-N-{(1R)-1-[6-(trifluoromethyl)pyridin-3-yl]ethyl}-1H-indazole-6-carboxamide]: half-maximal inhibition (IC50) required 38 nM. Against the preceding compound, the IC50 is about 16-fold lower.

As for `COC[C@H](C)NC(=O)c1ccc2c(-c3ccccc3Cl)nn(-c3ccc(F)cc3)c2c1` [Example 12, 3-(2-chlorophenyl)-1-(4-fluorophenyl)-N-[(1S)-2-methoxy-1-methylethyl]-1H-indazole-6-carboxamide], half-maximal inhibition (IC50) was put at 85 nM.

Compound `C[C@H](NC(=O)c1ccc2c(-c3ccccc3Cl)nn(-c3ccc(F)cc3)c2c1)c1ccc(C(F)(F)F)nc1` [Example 13, 3-(2-chlorophenyl)-1-(4-fluorophenyl)-N-{(1S)-1-[6-(trifluoromethyl)pyridin-3-yl]ethyl}-1H-indazole-6-carboxamide] came in with an IC50 of 48 nM. This IC50 is about 1.8-fold lower than that of the compound before.

On to `CC(C)(C)NC(=O)c1ccc2c(-c3ccccc3Cl)nn(-c3ccc(F)cc3)c2c1` [Example 15, N-tert-butyl-3-(2-chlorophenyl)-1-(4-fluorophenyl)-1H-indazole-6-carboxamide], for which the IC50 worked out at 77 nM.

In turn, `Cn1cc(C(C)(C)NC(=O)c2ccc3c(-c4ccccc4Cl)nn(-c4ccc(F)cc4)c3c2)cn1` [Example 16, 3-(2-chlorophenyl)-1-(4-fluorophenyl)-N-[1-methyl-1-(1-methyl-1H-pyrazol-4-yl)ethyl]-1H-indazole-6-carboxamide] had an IC50 of 120 nM.

With `O=C(NCc1ccc(C(F)(F)F)nc1)c1ccc2c(-c3ccccc3Cl)nn(-c3ccc(F)cc3)c2c1` [Example 18, 3-(2-chlorophenyl)-1-(4-fluorophenyl)-N-{[6-(trifluoromethyl)pyridin-3-yl]methyl}-1H-indazole-6-carboxamide], the IC50 was 64 nM.

For `CC(C)(C)OC(=O)CCNC(=O)c1ccc2c(-c3ccccc3Cl)nn(-c3ccc(F)cc3)c2c1` [Example 19, tert-butyl N-{[3-(2-chlorophenyl)-1-(4-fluorophenyl)-1H-indazol-6-yl]carbonyl}-beta-alaninate], the IC50 was 585 nM.

Consider `NS(=O)(=O)CCNC(=O)c1ccc2c(-c3ccccc3Cl)nn(-c3ccc(F)cc3)c2c1` [Example 20, 3-(2-chlorophenyl)-1-(4-fluorophenyl)-N-(2-sulfamoylethyl)-1H-indazole-6-carboxamide], for which 148 nM corresponded to half-maximal inhibition (IC50).

For the compound `O=C(NC1COC1)c1ccc2c(-c3ccccc3Cl)nn(-c3ccc(F)cc3)c2c1` [Example 21, 3-(2-chlorophenyl)-1-(4-fluorophenyl)-N-oxetan-3-yl-1H-indazole-6-carboxamide], the IC50 amounted to 873 nM.

As for `O=C(NC1CCS(=O)(=O)CC1)c1ccc2c(-c3ccccc3Cl)nn(-c3ccc(F)cc3)c2c1` [Example 24, 3-(2-chlorophenyl)-N-(1,1-dioxidotetrahydro-2H-thiopyran-4-yl)-1-(4-fluorophenyl)-1H-indazole-6-carboxamide], 61 nM corresponded to half-maximal inhibition (IC50).

As for `CN(C)S(=O)(=O)CCNC(=O)c1ccc2c(-c3ccccc3Cl)nn(-c3ccc(F)cc3)c2c1` [Example 25, 3-(2-chlorophenyl)-N-[2-(dimethylsulfamoyl)ethyl]-1-(4-fluorophenyl)-1H-indazole-6-carboxamide], the IC50 was 558 nM.

On to `CCS(=O)(=O)CCNC(=O)c1ccc2c(-c3ccccc3Cl)nn(-c3ccc(F)cc3)c2c1` [Example 26, 3-(2-chlorophenyl)-N-[2-(ethylsulfonyl)ethyl]-1-(4-ftuorophenyl)-1H-indazole-6-carboxamide], for which the midpoint of inhibition, the IC50, lay at 446 nM.

In turn, `CC(C)(NC(=O)c1ccc2c(-c3ccccc3Cl)nn(-c3ccc(F)cc3)c2c1)c1ccc(C(F)(F)F)nc1` [Example 28, 3-(2-chlorophenyl)-1-(4-fluorophenyl)-N-{1-methyl-1-[6-(trifluoromethyl)pyridin-3-yl]ethyl}-1H-indazole-6-carboxamide] displayed an IC50 of 93 nM.

Compound `O=C(N[C@@H](CO)c1ccc(C(F)(F)F)nc1)c1ccc2c(-c3ccccc3Cl)nn(-c3ccc(F)cc3)c2c1` [Example 30, 3-(2-chlorophenyl)-1-(4-fluorophenyl)-N-{(1R)-2-hydroxy-1-[6-(trifluoromethyl)pyridin-3-yl]ethyl}-1H-indazole-6-carboxamide] yielded an IC50 of 48 nM.

`O=C(NCc1cccnc1)c1ccc2c(-c3ccccc3Cl)nn(-c3ccc(F)cc3)c2c1` [Example 31, 3-(2-chlorophenyl)-1-(4-fluorophenyl)-N-(pyridin-3-ylmethyl)-1H-indazole-6-carboxamide]: the IC50 was determined as 320 nM.

Consider `O=C(NCc1ccccn1)c1ccc2c(-c3ccccc3Cl)nn(-c3ccc(F)cc3)c2c1` [Example 32, 3-(2-chlorophenyl)-1-(4-fluorophenyl)-N-(pyridin-2-ylmethyl)-1H-indazole-6-carboxamide], for which half-maximal inhibition (IC50) required 495 nM. Against the preceding compound, the IC50 is about 1.5-fold higher.

As for `O=C(NCc1ccncc1)c1ccc2c(-c3ccccc3Cl)nn(-c3ccc(F)cc3)c2c1` [Example 33, 3-(2-chlorophenyl)-1-(4-fluorophenyl)-N-(pyridin-4-ylmethyl)-1H-indazole-6-carboxamide], the half-inhibitory concentration (IC50) amounted to 654 nM. This IC50 and that of the compound before are within 1.5-fold of each other.

Compound `Cc1ncc([C@H](C)NC(=O)c2ccc3c(-c4ccccc4Cl)nn(-c4ccc(F)cc4)c3c2)cn1` [Example 34, 3-(2-chlorophenyl)-1-(4-fluorophenyl)-N-[(1S)-1-(2-methylpyrimidin-5-yl)ethyl]-1H-indazole-6-carboxamide] came in with an IC50 of 75 nM. This IC50 is about 8.7-fold lower than that of the compound before.

As to `O=C(NCc1cn2cccnc2n1)c1ccc2c(-c3ccccc3Cl)nn(-c3ccc(F)cc3)c2c1` [Example 35, 3-(2-chlorophenyl)-1-(4-fluorophenyl)-N-(imidazo[1,2-a]pyrimidin-2-ylmethyl)-1H-indazole-6-carboxamide], the midpoint of inhibition, the IC50, lay at 415 nM. This IC50 lies about 5.5-fold higher than the previous one.

In turn, `O=C(NCc1cnoc1)c1ccc2c(-c3ccccc3Cl)nn(-c3ccc(F)cc3)c2c1` [Example 37, 3-(2-chlorophenyl)-1-(4-fluorophenyl)-N-(isoxazol-4-ylmethyl)-1H-indazole-6-carboxamide] returned a concentration for half-maximal inhibition (IC50) of 221 nM.

For the compound `O=C(NCc1cncnc1)c1ccc2c(-c3ccccc3Cl)nn(-c3ccc(F)cc3)c2c1` [Example 38, 3-(2-chlorophenyl)-1-(4-fluorophenyl)-N-(pyrimidin-5-ylmethyl)-1H-indazole-6-carboxamide], the IC50 came to 368 nM.

As for `O=C(NCCn1cnnc1)c1ccc2c(-c3ccccc3Cl)nn(-c3ccc(F)cc3)c2c1` [Example 39, 3-(2-chlorophenyl)-1-(4-fluorophenyl)-N-[2-(4H-1,2,4-triazol-4-yl)ethyl]-1H-indazole-6-carboxamide], half-maximal inhibition (IC50) required 96 nM.

`O=C(NCc1cnsn1)c1ccc2c(-c3ccccc3Cl)nn(-c3ccc(F)cc3)c2c1` [Example 40, 3-(2-chlorophenyl)-1-(4-fluorophenyl)-N-(1,2,5-thiadiazol-3-ylmethyl)-1H-indazole-6-carboxamide] gave an IC50 of 445 nM.

With `CC(C)(CO)NC(=O)c1ccc2c(-c3ccccc3Cl)nn(-c3ccc(F)cc3)c2c1` [Example 42, 3-(2-chlorophenyl)-1-(4-fluorophenyl)-N-(2-hydroxy-1,1-dimethylethyl)-1H-indazole-6-carboxamide], 26 nM corresponded to half-maximal inhibition (IC50).

`O=C(NC1(CO)CCCC1)c1ccc2c(-c3ccccc3Cl)nn(-c3ccc(F)cc3)c2c1` [Example 43, 3-(2-chlorophenyl)-1-(4-fluorophenyl)-N-[1-(hydroxymethyl)cyclopentyl]-1H-indazole-6-carboxamide]: the IC50 came to 11 nM. This IC50 is about 2.4-fold lower than that of the compound before.
